This note sets out measurements from patent US20220404336A1, “COMPOSITIONS, METHODS AND USES FOR FREE FATTY ACID SCREENING OF CELLS AT SCALE” (priority 2019, published 2022).

Data set [1] concerns MIN6 cells. Type of data set: cell-based. As to the method:
For high throughput cell viability assay, cells were seeded in 384 well plates (Perkin Elmer, CellCarrier Ultra, #6057300) and treated for 24, 48 and 72 h with the FFA library. Just before readout, cell nuclei were stained with Hoechst (Thermo Fisher Scientific) for 1 h at 37° C. and imaged with the Opera Phenix High Content Screening System (#HH14000000, Perkin Elmer). Number of counted nuclei was determined with the image analysis software Harmony (PerkinElmer) and used as a proxy for cell viability. For low throughput validation experiments, cells were treated for 48 h with representative FFAs in CellCarrier-384 Ultra Microplates. Caspase 3/7 (Thermo Fisher Scientific, #C10423) activation and propidium iodide (Thermo Fisher Scientific, #P1304MP) staining were used to calculate the fraction of apoptotic cells and dead cells, respectively. Single cells were identified and counted after staining their nuclei with Hoechst. Fluorescence intensities were then measured and the threshold for Caspase 3/7 and propidium iodide positive staining was determined manually. Cell viability was calculated as the fraction of cells that were neither Caspase 3/7 nor propidium iodide positive.

The subject of data set [2] is ATF4 and CHOP. Description: Western blot, induction of the UPR. The conditions noted are these: MIN6 cells, BSA negative control. Type of data set: cell-based, mouse. As to the method:
MIN6 cells were lysed (#9803, Cell Signaling Technology) in the presence of protease inhibitors (#05892791001, Roche) and phosphatase inhibitors (#04906837001, Roche). Protein concentrations were quantified with the Pierce BCA Protein Assay Kit (#23225, Thermo Fisher Scientific). NuPAGE LDS sample buffer (#NP0008, Thermo Fisher Scientific) was added to normalized protein lysates together with NuPAGE reducing agent (#NP0004, Thermo Scientific). Lysates were heated to 95° C. for 5 min prior to SDS-PAGE gel electrophoresis (NuPAGE MES SDS running buffer, Thermo Fisher Scientific, #NP0002). Proteins were transferred to a nitrocellulose membrane (#1704158, BioRad) with the Trans-Blot® Turbo™ Blotting System (#1704155, BioRad) according to the manufacturer's protocol. Membranes were blocked in 5% Nonfat Dry Milk (#9999S, Cell Signaling Technology) in PBS with 0.1% Tween® 20 (PBS-T). Primary antibodies were incubated at 4° C. overnight, secondary antibodies were incubated at room temperature for 1 h. Super Signal West Dura (#34076, Thermo Fisher Scientific) or Super Signal West Pico (#34087, Thermo Fisher Scientific) were used to visualize immunoreactive bands imaged by G:BOX Chemi XT4:BOX-CHEMI-XT4, Syngene). Primary Antibodies used in this study: CPT1A: (Abcam #ab128568), ATF4: (CST #11815), CHOP: (CST #2895).

Data set [3] concerns MIN6 cells. Description: ER calcium levels (Fluo4, thapsigargin, FLIPR Tetra). Type of data set: cell-based, mouse. The conditions noted are these: FFA treatment 24 h, relative to negative control (BSA). How it is done:
MIN6 cells were plated in 384 well plates (Aurora, Black 384 SQ Well 188 micron Film, #1022-10110) and treated with the FFA library for 24 h prior to readout. Cells were carefully washed three times with HBSS (with calcium, Thermo Fisher Scientific, #14025076) using an automated simultaneous pipettor (analytikjena CyBio® Well vario) and incubated with the fluorescent calcium indicator Fluo4 (2 μM, Life Technologies, #F14202) in DMEM without additions for 1 h at room temperature. Then, cells were washed again in HBSS (with calcium) and incubated for another 30 min at room temperature in DMEM without additions. Just before the readout, cells were washed in final calcium free assay buffer solution (140 mM NaCl, 5 mM Kcl, 10 mM HEPES, 2 mM MgCl2, 10 mM EGTA, 10 mM Glucose) and left with 25 ul assay volume per well. Assay plates were immediately transferred to the FLIPR Tetra® High-Throughput Cellular Screening System. The plate was recorded with a frequency of 1 Hz for 10 min. Baseline was recorded for 30 s before the automated liquid transfer system of the FLIPR added the SERCA inhibitor Thapsigargin (final concentration 10 μM) in calcium free assay buffer. The resulting passive efflux of calcium from the ER induced a transient cytosolic fluorescence signal and the peak amplitudes were used to indirectly quantify ER calcium levels (See Extended Data FIG. 3d). The resulting trajectories were corrected for a pipetting artifact and baseline normalized. Log 2 Fold changes were calculated according to plate location specific negative (BSA) controls. The exclusion of one outlier/FFA/plate (n=5) based on a 3 sigma cutoff was allowed. P-values were calculated with Student's t-test (two-sided) and corrected for multiple testing (Benjamin & Hochberg).

In data set [4] the test system is NF-κB p65/RELA. Kind of data set: RELA nuclear translocation, immunofluorescence. Type of data set: cell-based, mouse. The conditions noted are these: MIN6 cells, 18 hours, BSA negative control. How it is done:
Cells grown on 384 well CellCarrier Ultra microplates (#6057308, PerkinElmer) were fixed 10 min in PBS containing 4% PFA (Electron Microscopy Sciences), permeabilized 15 min in 0.5% Triton X-100 (Sigma-Aldrich), blocked for 1 h in blocking reagent (100 mM Tris HCL pH8; 150 mM NaCL; 5 g/L Blocking Reagent (#11096176001, Roche)) and treated for 1.5 h with primary antibody diluted in blocking reagent (NF-κB p65/RELA, Rabbit monoclonal antibody, 1:200, (#8242, Cell Signaling Technology). Cells were washed three times in PBS and incubated for 0.5 h with fluorescent-labeled secondary antibody in blocking solution (1:500, Alexa Fluor 568 Goat anti-Rabbit IgG, (#A11036, Thermo Fisher Scientific)). Cytoplasmic actin filaments were stained with Phalloidin conjugated with Alexa 647 (1:40, #A22287, Thermo Fisher Scientific) and nuclei were counterstained with Hoechst (1:2000, #H3570, Thermo Fisher Scientific). Cells were washed three times in PBS and imaged using the Opera Phenix High Content Screening System, #HH14000000, Perkin Elmer). A minimum of nine fields was acquired per well using 20× water immersion objectives in a confocal mode. Image analysis was performed using the Harmony software (PerkinElmer). Cell nuclei were first identified using Hoechst staining and nuclear region was defined for each cell. Phalloidin staining was then used to detect and define the cytoplasmic region of the cell. RELA fluorescent intensity was measured separately in the nuclear and cytoplasmic regions and a threshold for a nuclear translocation was defined using negative (BSA) and positive (TNFα) controls. For each well the fraction of cells identified for RELA nuclear translocation was calculated.

The nature of data set [5]: Toxicity against human pancreatic islet cells (C-peptide positive cell count). The conditions noted are these: female, dissociated human pancreatic islet cells; human islet cells, 120 hours; relative to the C3 and tested C4 free fatty acids; read-out: decrease of human pancreatic cell viability. Type of data set: cell-based. How it is done:
(§1) Human pancreatic islets from a deceased donor (Islet Research Resource ID: SAMN15400953) were purchased from the Integrated Islet Distribution program, dissociated, and cultured as described previously ([…] and Wagner. Curr. Protocols in Chem. Biol. 6: 157-168). In brief, 384 well plates (Perkin Elmer, CellCarrier Ultra, #6057300) were coated in ECM 2-3 days before the start of the experiment. HTB-9 cells (ATTC, 5637) were seeded at 10K/well into the 384 well plates and grown to confluence. All culture media was aspirated and 50 ul/well of 20 mM NH4OH in PBS (Sigma) was added. The plates were incubated at 37 C for 6 minutes, after which the NH4OH was pipetted up and down 4-5 times before being aspirated. The wells were then filled with 50 ul/well PBS until seeding with human islets. Human islets were pelleted and dissociated with StemPro Accutase (Life Technologies, A11105-01) at 37 C for 20-25 minutes followed by pipetting to mix 5-7 times. The dissociated islets were resuspended in CMRL 1066 medium (CellGro, cat. no. 15-110-CV) supplemented with 10% FBS, 1× L-glutamine, and 1× penicillin/streptomycin, filtered through a nylon mesh to remove large cell aggregates, and seeded at 10K/well density in the coated 384w plate. These islets were maintained in full CMRL media at 37 C, 95% humidity, and 5% CO2 with media changes every third day. For testing of free fatty acids for toxicity against human pancreatic islet cells (FIG. 8), C2, C3, and C4 free fatty acids were incubated with human pancreatic islet cells at concentrations of 250 μM, 500 μM, and 1 mM for 120 hours with one media change at 72 hours. The islets were subsequently fixed with 3% paraformaldehyde for 20 minutes, permeabilized with 0.2% TritonX-100 for another 20 minutes, and blocked for 3 hours at RT in 2% BSA in PBS (SeraCare, AP-45100-80). The islets were stained with C-peptide antibody (Developmental studies hybridoma bank at University of Iowa) at 1:100 in 2% BSA/PBS overnight rocking at 4 C, washed with PBS three times followed by once with 1% BSA/PBS, and then incubated with 568 Goat anti-rat (Life technologies, A11077) at 1:1000 and Hoechst (Thermo Fisher Scientific) at 1:1000 for one hour at RT. These islets were then imaged with the Operetta CLS High Content Screening System (#HH16000000, Perkin Elmer). The number of C-peptide positive cells in each well was quantified using Harmony software (PerkinElmer) and used as a proxy for cell viability.

The test system of data set [6] is human pancreatic islet cells. The data set is described as above. Type of data set: cell-based. As to the method:
as §1

The mark [7] stands for this setting: MIN6 cells, representative FFAs, 48 h.

Entries after “also recorded” stand apart in the source; their conditions may differ. Like-named read-outs stand apart in the source and are kept apart here.

On to `CCCCCCCC/C=C\CCCCCCCCCCCC(=O)O` [EA, 13(Z)-Docosenoic acid], for which the “apoptosis (caspase activity) and cell death (propidium iodide positive nuclei); cell viability” value (from here on “apoptosis”) in data set [1] (setting [7]) was “consistently induced apoptosis and cell death; also recorded: reduced cell viability”. In addition, the “induction of the UPR (ATF4 and CHOP protein abundance)” value (“induction of the UPR” below) in data set [2] is “upregulation of ATF4 and CHOP protein abundance; also recorded: inducing ATF4 and CHOP”. In addition, the “ER Ca^2+ levels (peak amplitude after thapsigargin 10 μM)” value (shortened to “ER Ca^2+ levels”) in data set [3] is “significant reduction of ER Ca^2+ levels”. Further, the “nuclear translocation of RELA (p65)” value in data set [4] is “translocated to the nucleus; also recorded: Complete translocation of RELA from the cytosol to the nucleus”. Besides, the cytotoxicity at 120 h in data set [5] is above 50%. The “human pancreatic cell viability” value in data set [6] (human islet cells, 250 μM, 500 μM, 1 mM, 120 hours, relative to C3 FFAs 9Z-octadecenoic acid, 6Z-octadecenoic acid and C4 FFA 10Z-nonadecenoic acid) is “decreased human pancreatic cell viability”.
Consider `CCCCC/C=C\C/C=C\C/C=C\CCCCC(=O)O` [GLA, gamma-linoleic acid], for which, in data set [1] (setting [7]), the “apoptosis” value is recorded as “trended towards decreased viability”. In addition, the “induction of the UPR” value in data set [2] is “None”. Besides, the “ER Ca^2+ levels” value in data set [3] is “increased”.
As to `CCCCCCCC/C=C\CCCCCCCCCCCCC(=O)O` [14Z-tricosenoic acid, 14(Z)-Tricosenoic acid], the “decrease of human pancreatic cell viability” value in data set [6] was “more than 50%”.
As for `CCCCCCCCCCC/C=C\CCCCC(=O)O` [PSA, petroselenic acid], the “apoptosis” value in data set [1] (setting [7]) is “not associated with changes in cell viability”. In addition, the “induction of the UPR” value in data set [2] is on record as “None”. Besides, the “ER Ca^2+ levels” value in data set [3] is “near-baseline”. The “nuclear translocation of RELA (p65)” value in data set [4] is on record as “moderate RELA translocation to the nucleus”.
In the case of `CCCCC/C=C\C/C=C\C/C=C\C/C=C\CCCC(=O)O` [AA, 5(Z),8(Z),11(Z),14(Z)-Eicosatetraenoic Acid], the “apoptosis” value in data set [1] is given as “trended towards decreased viability”. In data set [2], the “induction of the UPR” value is “None”. Further, the “ER Ca^2+ levels” value in data set [3] is listed as “increased”.
As for `CCCCCCCC/C=C\CCCCCCCC(=O)O` [OA, 9(Z)-Octadecenoic acid], in data set [1], the “apoptosis” value is reported as “not associated with changes in cell viability”. Besides, the “induction of the UPR” value in data set [2] is on record as “None”. In data set [3], the “ER Ca^2+ levels” value was “near-baseline”.
With `CCCCCCCCCCCCCCCC(=O)O` [PA, Hexadecanoic acid], the “induction of the UPR” value in data set [2] was “upregulation of ATF4 and CHOP protein abundance; also recorded: inducing ATF4 and CHOP”. In data set [3], the “ER Ca^2+ levels” value is recorded as “significant reduction of ER Ca^2+ levels”. The “nuclear translocation of RELA (p65)” value in data set [4] was “translocated to the nucleus”.
For the molecule `CCCCCCCC/C=C\CCCCCCCCCCCCCC(=O)O` [15Z-tetracosenoic acid, 15(Z)-Tetracosenoic acid], the “decrease of human pancreatic cell viability” value in data set [6] is “more than 50%”.
